Consider four molecules from patent publication US20230158041A1, “METHODS AND COMPOSITIONS FOR TREATING AUTOSOMAL DOMINANT POLYCYSTIC KIDNEY DISEASE” (OTSUKA PHARMACEUTICAL CO.,LTD., priority 2021, published 2023).

As usually defined, the IC50 is the concentration that inhibits the measured activity by half. By inhibition is commonly meant the change of the read-out against control, counted positive when it falls. One may read the Tmax as the time at which the peak concentration occurs. Usually Cmax stands for the maximum level reached in the sampled fluid or tissue. A word on the half-life: it is the time needed for the level to fall by half in the phase considered.

The target in data set [1] is T1, human (OATP)1B1 (Homo sapiens, UniProt Q9Y6L6).
T1 sequence (Q9Y6L6 1-691): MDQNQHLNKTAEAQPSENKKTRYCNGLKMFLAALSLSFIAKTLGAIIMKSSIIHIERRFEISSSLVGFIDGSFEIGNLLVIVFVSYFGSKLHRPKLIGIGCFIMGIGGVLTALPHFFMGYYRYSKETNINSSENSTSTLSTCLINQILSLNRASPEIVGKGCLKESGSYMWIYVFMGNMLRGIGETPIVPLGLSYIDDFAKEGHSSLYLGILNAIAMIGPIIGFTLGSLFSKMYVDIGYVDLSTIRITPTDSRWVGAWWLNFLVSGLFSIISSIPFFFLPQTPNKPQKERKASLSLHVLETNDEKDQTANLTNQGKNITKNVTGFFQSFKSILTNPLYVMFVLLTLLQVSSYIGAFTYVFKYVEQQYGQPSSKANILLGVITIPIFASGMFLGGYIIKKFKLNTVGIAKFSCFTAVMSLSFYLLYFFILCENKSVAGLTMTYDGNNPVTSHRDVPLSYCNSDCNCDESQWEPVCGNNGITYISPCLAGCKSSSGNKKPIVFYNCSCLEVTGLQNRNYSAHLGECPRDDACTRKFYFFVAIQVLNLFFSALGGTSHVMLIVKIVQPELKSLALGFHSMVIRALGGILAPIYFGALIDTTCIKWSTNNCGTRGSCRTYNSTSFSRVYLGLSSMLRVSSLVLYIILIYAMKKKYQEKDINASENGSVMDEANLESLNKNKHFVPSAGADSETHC
Description: (OATP)1B1: Estradiol 17β-D-glucuronide transport was evaluated in HEK293 cells stably expressing human (OATP)1B1 (kit with ready to use 24 well plates were obtained from GenoMembrane). […] DM-4103 concentrations of 0.064, 0.32, 1.6, 8.0, 40, and 200 μM were tested.

The test system of data set [2] is plasma protein. Put plainly: DM-4103 plasma protein binding, micropartition device (Centrifree YM-30) with HPLC-MS/MS. The format is in vitro ADME. Here is the method: The effect of six other highly plasma protein bound compounds on DM-4103 binding was also evaluated. […] No potential for interaction at either transporter would have been predicted if a free fraction of 0.1% had been used, consistent with the clinical findings.

In data set [3] the target is T2, (OAT)3 (Homo sapiens, UniProt Q8TCC7).
T2 sequence (Q8TCC7 1-542): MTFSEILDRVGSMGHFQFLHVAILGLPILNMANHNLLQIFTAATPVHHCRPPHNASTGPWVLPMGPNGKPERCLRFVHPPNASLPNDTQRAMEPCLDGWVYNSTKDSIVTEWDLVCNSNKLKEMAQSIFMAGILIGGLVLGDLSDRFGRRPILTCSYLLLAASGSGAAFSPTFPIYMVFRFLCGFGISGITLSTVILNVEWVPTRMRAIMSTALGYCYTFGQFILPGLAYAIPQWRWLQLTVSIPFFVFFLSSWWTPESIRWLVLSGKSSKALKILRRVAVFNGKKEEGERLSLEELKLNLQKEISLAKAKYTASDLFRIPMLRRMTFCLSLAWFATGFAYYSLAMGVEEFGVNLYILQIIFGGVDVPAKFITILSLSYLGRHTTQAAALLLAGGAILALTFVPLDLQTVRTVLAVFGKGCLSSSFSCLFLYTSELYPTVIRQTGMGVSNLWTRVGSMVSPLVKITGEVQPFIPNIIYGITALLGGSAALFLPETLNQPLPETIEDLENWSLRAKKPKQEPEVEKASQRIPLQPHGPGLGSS
Briefly: Estrone 3-sulfate transport inhibition in HEK293 cells stably expressing human (OAT)3. The format is cell-based. More on the design: host or cells: HEK293.
Description: (OAT)3: Estrone 3-sulfate transport was evaluated in HEK293 cells stably expressing human (OAT)3 (kit with ready to use 24 well plates were obtained from GenoMembrane). […] DM-4103 concentrations of 0.064, 0.32, 1.6, 8.0, 40, and 200 μM were tested.

Data set [4] is described as follows: Earlier clinical data for tolvaptan and DM-4103 (PK, tolerability; data on file). The format is in vivo, human.
Data set [5] deals with T2, (OAT)3. Put plainly: Trial 2: (OAT)3 inhibition, furosemide in presence of DM-4103 vs. furosemide alone. As to conditions: furosemide 48 hours following 7 days of 300 mg tolvaptan q.d. Set-up: endogenous in cells; host or cells: healthy human subjects, in vivo. The data set is classed as in vivo.
A short description of data set [6]: Trial 1: plasma rosuvastatin PK, tolvaptan and DM-4103 plasma concentrations, adverse events in healthy subjects. The protocol: (§1) Trial 1 was designed as an open-label, 3-period, sequential crossover. […] On days 7 to 13, 300 mg tolvaptan was administered q.d.
Doses on pharmacokinetic (PK) sampling days were administered in the fasted state with 240 ml of room temperature still water. No food was allowed from 10 h prior to dosing until lunch was given following the 4 h post-dose assessments; water was available ad libitum except for +/−2 h around dosing. On non-PK sampling days, tolvaptan was administered at least 30 min prior to breakfast. Safety was evaluated by laboratory values, vital signs, and 12-lead electrocardiogram (ECG) at screening, day 1, and discharge (no ECG), and adverse event reports.
A 90 mg dose of tolvaptan was chosen as it is the highest dose administered at any given time in the treatment of ADPKD.
The assay used to determine plasma tolvaptan concentrations also included DM-4103 as a standard. The precursor→production was m/z 479→252.

The conditions of data set [7]: in vivo; cited from earlier work.
The nature of data set [8]: Phase II and III congestive heart failure trials: tolvaptan with furosemide. The data set is classed as in vivo, human. As to conditions: tolvaptan+furosemide compared with placebo+furosemide.
The test system of data set [9] is sandwich-cultured human hepatocytes. The conditions noted are these: cited from earlier work.
Data set [10] can be described thus: Phase III ADPKD trials: statin use with tolvaptan. The format is in vivo, human. The conditions noted are these: subjects taking tolvaptan alone or tolvaptan plus statins.
Data set [11] in a line: Tolvaptan solubility. As to conditions: pH independent. The data set is classed as physicochemical.
The conditions of data set [12]: predicted; cited from earlier work.
In data set [13] the target is T3, BCRP (Homo sapiens, UniProt Q9UNQ0).
T3 sequence (Q9UNQ0 1-655): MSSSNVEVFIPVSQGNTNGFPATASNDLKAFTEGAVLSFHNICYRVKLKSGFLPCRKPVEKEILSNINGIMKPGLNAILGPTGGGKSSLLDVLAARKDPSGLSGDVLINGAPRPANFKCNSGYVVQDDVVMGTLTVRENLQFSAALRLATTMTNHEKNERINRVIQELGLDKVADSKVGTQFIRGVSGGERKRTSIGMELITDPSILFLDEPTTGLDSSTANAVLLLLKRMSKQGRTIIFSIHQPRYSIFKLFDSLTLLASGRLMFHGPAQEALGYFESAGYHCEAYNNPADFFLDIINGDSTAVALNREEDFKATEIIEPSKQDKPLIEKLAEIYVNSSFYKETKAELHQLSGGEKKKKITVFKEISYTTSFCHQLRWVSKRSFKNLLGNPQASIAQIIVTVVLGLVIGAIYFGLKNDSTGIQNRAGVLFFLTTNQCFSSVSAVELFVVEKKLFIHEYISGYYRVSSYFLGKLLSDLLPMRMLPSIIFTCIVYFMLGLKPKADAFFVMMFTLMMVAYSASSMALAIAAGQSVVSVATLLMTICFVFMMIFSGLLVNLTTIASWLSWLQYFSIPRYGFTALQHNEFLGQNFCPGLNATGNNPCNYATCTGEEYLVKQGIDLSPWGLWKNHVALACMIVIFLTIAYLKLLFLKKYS
Put plainly: Trial 1: BCRP inhibition, rosuvastatin + tolvaptan vs. rosuvastatin alone. The format is in vivo. Set-up: endogenous in cells; host or cells: healthy human subjects, in vivo. As to conditions: 90 mg tolvaptan with 5 mg rosuvastatin calcium. The protocol: as §1
An analysis of variance with a factor of period and random effect of subjects was performed on the natural-log transformed PK parameters using the MIXED procedure in SAS. From each analysis, the least square means, their difference, and the 90% CI for their difference were derived. Then, the anti-logs of the difference and the confidence limits provided the estimate and 90% CI for the ratio of the geometric means of the test treatment to the reference treatment. Only subjects with values in both treatments were used in the analysis.

Data set [14] has as its target T4, sodium-dependent tauro-cholate co-transporting polypeptide (NTCP) (Homo sapiens, UniProt Q14973).
T4 sequence (Q14973 1-349): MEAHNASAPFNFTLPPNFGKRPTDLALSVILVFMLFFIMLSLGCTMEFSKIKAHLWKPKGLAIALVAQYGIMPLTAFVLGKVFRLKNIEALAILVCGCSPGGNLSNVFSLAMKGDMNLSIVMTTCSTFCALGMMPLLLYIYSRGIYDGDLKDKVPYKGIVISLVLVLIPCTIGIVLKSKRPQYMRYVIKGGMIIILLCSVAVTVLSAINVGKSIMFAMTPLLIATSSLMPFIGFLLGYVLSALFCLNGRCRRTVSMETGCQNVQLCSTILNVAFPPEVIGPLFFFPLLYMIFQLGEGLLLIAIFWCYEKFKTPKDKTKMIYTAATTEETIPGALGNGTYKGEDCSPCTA
As to conditions: cited from earlier work.

In data set [15] the target is T3, BCRP.
Description: BCRP: Prazosin transport was evaluated in MDCKII BCRP-expressing cells (obtained from SOLVO Biotechnology) precultured for six to eight days.
For data set [16] the following is noted: 300 mg tolvaptan for 5 days, healthy subjects; cited from earlier work.

Entries after “also recorded” stand apart in the source; their conditions may differ. Marks after values point to notes of the source that are not given here.

Regarding `Cc1ccccc1C(=O)Nc1ccc(C(=O)Nc2ccc(Cl)cc2C(=O)CCC(=O)O)c(C)c1` [DM-4103], in data set [1], the 50% inhibitory concentration (IC50) worked out at 255 nM and the “inhibitor of (OATP)1B1 in vitro” value is given as “inhibitor”. Besides, the “plasma protein binding (PPB)” value in data set [2] is “greater than 99.8%”. For the same molecule, the “DM-4103 binding in presence of six other highly plasma protein bound compounds” value in data set [2] (all samples, no interactions detected) was “greater than 99.8%”. Further, the concentration for half-maximal inhibition (IC50) in [3] ((OAT)3 overexpressing HEK293 cells, read-out: IC50 estimate, inhibition of estrone 3-sulfate transport) is 425 nM. Further, the “DM-4103 concentration at which the ratio is equal to 0.1” value in data set [3] (Imax,u/IC50 for (OAT)3, fu,p 0.01) was ~2034 ng/mL. The “inhibitor of (OAT)3 in vitro” value in data set [3] (in vitro) is given as “inhibitor”. For the same molecule, the plasma concentrations entry in data set [4] (first 2 hours following a 90 mg tolvaptan dose) is recorded as “less than 100 ng/ml”. Also, in data set [4] (human, in vivo), the elimination half-life is ~180 h and the “time to steady-state concentrations after the start of tolvaptan dosing” value is on record as ~8 weeks. Moreover, the “inhibition of (OAT)3 in healthy subjects” value in [5] is recorded as “No inhibition; also recorded: not an inhibitor”.

Take `CCCN(CCC)S(=O)(=O)c1ccc(C(=O)O)cc1` [Probenecid]: in data set [3] (HEK293, read-out: inhibition of estrone 3-sulfate transport), the inhibition at 30 µM was 91.1%.

In the case of `CC(C)c1nc(N(C)S(C)(=O)=O)nc(-c2ccc(F)cc2)c1/C=C/[C@@H](O)C[C@@H](O)CC(=O)O` [rosuvastatin], the Tmax in data set [6] (5 mg ROS in presence of DM-4103, median) is on record as 4.00 h. Moreover, the Tmax in data set [6] (5 mg rosuvastatin + 90 mg tolvaptan, median) is 3.03 h. Besides, the “TEAE incidence: nausea” value in data set [6] (human, in vivo) came to 12.5%. In [6] (human, in vivo, 5 mg), the AUCt was 18.9 ng·h/mL, the “AUC∞” value is recorded as 20.3-36.0** ng*h/ml, the Cmax is 2.81 ng/mL and the Tmax was 3.50 h. Further, in data set [6] (human, in vivo, 5 mg), the “t1/2, z” value is listed as 2.4-4.3** h. In data set [7], the “observed increases in rosuvastatin maximal peak plasma concentration (Cmax)” value is reported as “up to 11 fold”.

As to `Cc1ccccc1C(=O)Nc1ccc(C(=O)N2CCCC(O)c3cc(Cl)ccc32)c(C)c1` (stereo not shown) [tolvaptan, 7-chloro-5-hydroxy-1-[2-methyl-4-(2-methylbenzoylamino)benzoyl]-2,3,4,5-tetrahydro-1H-benzoazepine], in data set [8], the “incidence of adverse events” value was “similar”. Further, the “accumulation in sandwich-cultured human hepatocytes” value in data set [9] was “at least 10 fold”. The “statin use or incidences of statin-related adverse events” value in data set [10] is “no differences”. In [11], the solubility entry is given as “about 0.01 g/250 ml”. Further, the “liver:blood ratio” value in [12] is given as 38.76. Besides, the half-life in [4] (human, in vivo) is ~3.5 h. Besides, the “accumulation” value in data set [4] (steady-state concentrations achieved on day 1) is “no accumulation”. Besides, the “inhibition of BCRP in healthy subjects” value in [13] is “No clinically-relevant inhibition”. In data set [14], the “NTCP IC50 value relative to Cmax” value is listed as “higher than Cmax” and the “inhibitor of NTCP” value is listed as “inhibitor of NTCP”. The molecule further returned a half-maximal inhibitory concentration (IC50) in data set [15] of 8320 nM. Besides, in data set [15] (human), the “Igut/IC50 (printed as predicted Ki)” value is 96.4. Moreover, the “safety and tolerability” value in data set [16] is “safe and well-tolerated”.
